Here are results for 37 compounds from ChEMBL document CHEMBL5252617, “Design, synthesis and biological evaluation of novel N-(methyl-d3) pyridazine-3-carboxamide derivatives as TYK2 inhibitors” (Bioorg Med Chem Lett, 2023).

pIC50: −log10 of the molar value.

As usually defined, the Tm is the temperature at the midpoint of the melting transition. Broadly, the pIC50 is the negative decadic logarithm of the IC50, by convention in mol/L. A higher pIC50 goes with a small IC50.

Data set [1] addresses T1, Non-receptor tyrosine-protein kinase TYK2 (Homo sapiens, UniProt P29597). In words: Binding affinity to TYK2 JH2 domain (unknown origin) assessed as melting temperature at 1 uM by thermal shift assay. As to conditions: tested as the 2H-labelled form.
In data set [2] the target is T1, Non-receptor tyrosine-protein kinase TYK2. In words: Binding affinity to TYK2 JH2 domain (unknown origin) assessed as melting temperature at 10 uM by thermal shift assay. As to conditions: tested as the 2H-labelled form.
The nature of data set [3]: Stability in mouse liver microsomes assessed as parent compound remaining measured after 60 mins. As to conditions: read-out: Stability. The class given is ADME, Microsome. In general terms: Liver microsomes are vesicles of endoplasmic reticulum, rich in cytochrome P450 enzymes.
Data set [4] in a line: Stability in human liver microsomes assessed as parent compound remaining measured after 60 mins. The class given is ADME, Microsome. As to conditions: read-out: Stability.
In data set [5] the target is T1, Non-receptor tyrosine-protein kinase TYK2. Kind of data set: Inhibition of TYK2 dependent IFNalpha-stimulated STAT3 phosphorylation in human Jurkat cells. It is filed as cell-based.

T1 sequence (P29597 whole entry, the tested form may be a part): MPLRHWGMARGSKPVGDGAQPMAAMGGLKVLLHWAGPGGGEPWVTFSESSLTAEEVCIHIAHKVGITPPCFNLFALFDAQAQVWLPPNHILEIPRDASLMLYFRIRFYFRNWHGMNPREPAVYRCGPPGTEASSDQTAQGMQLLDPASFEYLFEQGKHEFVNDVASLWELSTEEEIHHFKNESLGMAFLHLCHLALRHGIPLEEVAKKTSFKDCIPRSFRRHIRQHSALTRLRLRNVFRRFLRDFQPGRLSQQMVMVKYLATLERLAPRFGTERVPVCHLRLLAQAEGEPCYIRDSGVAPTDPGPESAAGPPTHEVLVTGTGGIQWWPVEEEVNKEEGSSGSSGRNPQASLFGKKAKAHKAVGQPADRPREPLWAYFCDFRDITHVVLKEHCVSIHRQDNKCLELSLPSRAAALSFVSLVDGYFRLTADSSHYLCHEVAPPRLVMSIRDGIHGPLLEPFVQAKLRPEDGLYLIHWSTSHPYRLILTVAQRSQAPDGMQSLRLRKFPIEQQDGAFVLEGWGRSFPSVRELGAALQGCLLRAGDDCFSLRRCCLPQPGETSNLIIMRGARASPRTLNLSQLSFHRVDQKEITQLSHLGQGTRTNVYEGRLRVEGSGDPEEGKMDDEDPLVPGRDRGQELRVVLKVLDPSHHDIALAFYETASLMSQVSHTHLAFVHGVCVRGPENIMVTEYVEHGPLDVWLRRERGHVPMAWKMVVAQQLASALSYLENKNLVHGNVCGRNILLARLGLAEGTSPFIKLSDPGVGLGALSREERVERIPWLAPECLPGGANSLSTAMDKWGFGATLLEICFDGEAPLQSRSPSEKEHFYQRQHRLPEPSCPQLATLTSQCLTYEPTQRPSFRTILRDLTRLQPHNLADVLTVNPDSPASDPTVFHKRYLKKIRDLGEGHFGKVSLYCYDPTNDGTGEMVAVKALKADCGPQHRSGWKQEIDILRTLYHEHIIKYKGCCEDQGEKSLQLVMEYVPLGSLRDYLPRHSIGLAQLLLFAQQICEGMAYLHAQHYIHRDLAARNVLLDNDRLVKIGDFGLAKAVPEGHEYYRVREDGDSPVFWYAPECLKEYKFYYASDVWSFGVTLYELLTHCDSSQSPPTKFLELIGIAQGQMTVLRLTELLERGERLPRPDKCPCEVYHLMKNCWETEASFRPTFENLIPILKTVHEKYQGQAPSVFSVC

As to `CCn1cnc(-c2ccc(NC(=O)c3cccc(Nc4cc(NC(=O)C5CC5)nnc4C(=O)NC)c3OC)cc2)n1`, the values for the Tm in data set [1] and in data set [2] were 54.9 °C and 58.2 °C, respectively.

Consider `CNC(=O)c1nnc(NC(=O)C2CC2)cc1Nc1cccc(C(=O)Nc2ccc(N3CCCCS3(=O)=O)cc2)c1OC`, for which the figures for the Tm in data set [1] and in data set [2] were 58.7 °C and 64.8 °C, respectively.

`[2H]C([2H])([2H])NC(=O)c1nnc(NC(=O)C2CC2)cc1Nc1cccc(C(=O)Nc2ccc(-n3cccn3)cc2)c1OC`: the figures for the remaining at 1 h in data set [3] and in data set [4] were 54.9% and 78.5%, respectively. The compound also gave a pIC50 in data set [5] of 8.19.

On to `[2H]C([2H])([2H])NC(=O)c1nnc(NC(=O)C2CC2)cc1Nc1cccc(C(=O)Nc2ccc(-n3ccnc3)cc2)c1OC`, for which the pIC50 in data set [5] was 7.29.

Compound `[2H]C([2H])([2H])NC(=O)c1nnc(NC(=O)C2CC2)cc1Nc1cccc(C(=O)Nc2ccc(NC(=O)C3CCCC3)cc2)c1OC` gave a pIC50 in data set [5] of 8.00.

In the case of `[2H]C([2H])([2H])NC(=O)c1nnc(NC(=O)C2CC2)cc1Nc1cccc(C(=O)Nc2ccc(N3CCCCC3)cc2)c1OC`, the remaining at 1 h was found to be 9% in data set [3] and 1.91% in data set [4]. The pIC50 in data set [5] was 7.92.

For the compound `CNC(=O)c1nnc(NC(=O)C2CC2)cc1Nc1cccc(C(=O)Nc2ccc(N3CCCCC3=O)cc2)c1OC`, the midpoint of thermal melting (Tm) in data set [1] was 60.6 °C; in data set [2], 66.6 °C.

As to `CNC(=O)c1nnc(NC(=O)C2CC2)cc1Nc1cccc(C(=O)Nc2ccc(-n3cccn3)cc2)c1OC`, the melting temperature (Tm) in data set [1] was found to be 56.2 °C; in data set [2], 61.1 °C.

Turning to `[2H]C([2H])([2H])NC(=O)c1nnc(NC(=O)C2CC2)cc1Nc1cccc(C(=O)Nc2ccc(-c3ccc(F)c(=O)[nH]3)cc2)c1OC`, the values for the remaining at 1 h in data set [3] and in data set [4] were 58.2% and 81.8%, respectively. This compound had a pIC50 in data set [5] of 7.89.

Consider `CNC(=O)c1nnc(NC(=O)C2CC2)cc1Nc1cccc(C(=O)Nc2ccc(N3CCCC3=O)cc2)c1OC`, for which the midpoint of thermal melting (Tm) was found to be 56.5 °C in data set [1] and 61.9 °C in data set [2].

As for `[2H]C([2H])([2H])NC(=O)c1nnc(NC(=O)C2CC2)cc1Nc1cccc(C(=O)Nc2ccc(-n3ccccc3=O)cc2)c1OC`, the results for the remaining at 1 h in data set [3] and in data set [4] were 71.3% and 75.8%, respectively. For the same compound, in data set [5], the pIC50 is 8.49.

`CNC(=O)c1nnc(NC(=O)C2CC2)cc1Nc1cccc(C(=O)Nc2ccc(-c3cccc(=O)[nH]3)cc2)c1OC`: the Tm is 52.5 °C in data set [1] and 56.5 °C in data set [2].

For `[2H]C([2H])([2H])NC(=O)c1nnc(NC(=O)C2CC2)cc1Nc1cccc(C(=O)Nc2ccc(C3CCCNC3=O)cc2)c1OC` (configuration not stated), the remaining at 1 h in data set [3] is 44.8%; in data set [4], 41.8%. In data set [5], this compound showed a pIC50 of 8.74.

Take `CNC(=O)c1nnc(NC(=O)C2CC2)cc1Nc1cccc(C(=O)Nc2ccc(-c3ncn(C)n3)cc2)c1OC`: the midpoint of thermal melting (Tm) amounted to 53.8 °C in data set [1] and 57 °C in data set [2].

As to `CNC(=O)c1nnc(NC(=O)C2CC2)cc1Nc1cccc(C(=O)Nc2cccc(-n3ccccc3=O)c2)c1OC`, the Tm in data set [1] stood at 52.9 °C; in data set [2] it was 57.6 °C.

As to `[2H]C([2H])([2H])NC(=O)c1nnc(Nc2ccc(F)cn2)cc1Nc1cccc(C(=O)Nc2ccc(N3CCCCC3=O)cc2)c1OC`, the remaining at 1 h in data set [3] amounted to 27.5%; in data set [4], 39.9%. In addition, the pIC50 in data set [5] was 9.00.

Consider `CNC(=O)c1nnc(NC(=O)C2CC2)cc1Nc1cccc(C(=O)Nc2ccc(N3CCCCC3=O)cc2F)c1OC`, for which the results for the Tm in data set [1] and in data set [2] were 56.2 °C and 60.8 °C, respectively.

On to `CNC(=O)c1nnc(NC(=O)C2CC2)cc1Nc1cccc(C(=O)Nc2ccc(NC(=O)C3CCCC3)cc2)c1OC`, for which the Tm in data set [1] worked out at 52.7 °C; in data set [2], 56.2 °C.

For `CNC(=O)c1nnc(NC(=O)C2CC2)cc1Nc1cccc(C(=O)Nc2ccc(-n3ccccc3=O)cc2)c1OC`, the midpoint of thermal melting (Tm) in data set [1] amounted to 56 °C; in data set [2], 62.2 °C.

In the case of `CNC(=O)c1nnc(Nc2ccc(F)cn2)cc1Nc1cccc(C(=O)Nc2ccc(N3CCCCC3=O)cc2)c1OC`, the Tm in data set [1] turned out to be 66 °C; in data set [2], 68.8 °C.

On to `CNC(=O)c1nnc(NC(=O)C2CC2)cc1Nc1cccc(C(=O)Nc2ccc(N3CCCCCC3=O)cc2)c1OC`, for which the Tm in data set [1] is 59.6 °C; in data set [2] it was 64.8 °C.

On to `CNC(=O)c1nnc(NC(=O)C2CC2)cc1Nc1cccc(C(=O)Nc2ccc(N3CCCCC3=O)c(Cl)c2)c1OC`, for which the Tm in data set [1] came to 60.4 °C; in data set [2], 65.5 °C.

For `CNC(=O)c1nnc(NC(=O)C2CC2)cc1Nc1cccc(C(=O)Nc2ccc(-c3ccc(F)c(=O)[nH]3)cc2)c1OC`, the Tm in data set [1] came to 55.9 °C; in data set [2], 60.1 °C.

For `[2H]C([2H])([2H])NC(=O)c1nnc(NC(=O)C2CC2)cc1Nc1cccc(C(=O)Nc2ccc(N3CCCC3=O)cc2)c1OC`, the remaining at 1 h in data set [3] was found to be 55.1%; in data set [4] it was 86.9%. For the same compound, the pIC50 in data set [5] is 8.08.

Consider `[2H]C([2H])([2H])NC(=O)c1nnc(NC(=O)C2CC2)cc1Nc1cccc(C(=O)Nc2ccc(N3CCCCC3=O)cc2F)c1OC`, for which the remaining at 1 h in data set [3] was 36.6%; in data set [4], 37.8%. The compound further gave a pIC50 in data set [5] of 8.24.

As to `[2H]C([2H])([2H])NC(=O)c1nnc(Nc2ccccn2)cc1Nc1cccc(C(=O)Nc2ccc(N3CCCCC3=O)cc2)c1OC`, the remaining at 1 h in data set [3] stood at 23%; in data set [4] it was 44.5%. The pIC50 in data set [5] was 9.09.

Consider `[2H]C([2H])([2H])NC(=O)c1nnc(NC(=O)C2CC2)cc1Nc1cccc(C(=O)Nc2ccc(N3CCCCCC3=O)cc2)c1OC`, for which the remaining at 1 h in data set [3] was 5.63%; in data set [4] it was 0.39%. This compound gave a pIC50 in data set [5] of 8.60.

Regarding `CNC(=O)c1nnc(NC(=O)C2CC2)cc1Nc1cccc(C(=O)Nc2ccc(C3CCCNC3=O)cc2)c1OC` (configuration not stated), the values for the midpoint of thermal melting (Tm) in data set [1] and in data set [2] were 60.1 °C and 70.2 °C, respectively.

In turn, `[2H]C([2H])([2H])NC(=O)c1nnc(NC(=O)C2CC2)cc1Nc1cccc(C(=O)Nc2ccc(-c3ncn(CC)n3)cc2)c1OC` gave a pIC50 in data set [5] of 7.37.

Turning to `[2H]C([2H])([2H])NC(=O)c1nnc(NC(=O)C2CC2)cc1Nc1cccc(C(=O)Nc2ccc(-c3cccc(=O)[nH]3)cc2)c1OC`, in data set [5], the pIC50 is 7.26.

In data set [5], `[2H]C([2H])([2H])NC(=O)c1nnc(NC(=O)C2CC2)cc1Nc1cccc(C(=O)Nc2ccc(-c3cccnc3)cc2)c1OC` gave a pIC50 of 7.62. Compared with the last compound, the pIC50 is 0.36 log units higher.

With `CNC(=O)c1nnc(Nc2ccccn2)cc1Nc1cccc(C(=O)Nc2ccc(N3CCCCC3=O)cc2)c1OC`, the Tm amounted to 64 °C in data set [1] and 66.5 °C in data set [2].

`[2H]C([2H])([2H])NC(=O)c1nnc(NC(=O)C2CC2)cc1Nc1cccc(C(=O)Nc2cccc(-n3ccccc3=O)c2)c1OC`: in data set [5], the pIC50 was 7.96.

Turning to `CNC(=O)c1nnc(NC(=O)C2CC2)cc1Nc1cccc(C(=O)Nc2ccc(N3CCCCC3)cc2)c1OC`, the melting temperature (Tm) in data set [1] came to 58.2 °C; in data set [2] it was 63.4 °C.

With `[2H]C([2H])([2H])NC(=O)c1nnc(NC(=O)C2CC2)cc1Nc1cccc(C(=O)Nc2ccc(-c3ncn(C)n3)cc2)c1OC`, in data set [5], the pIC50 is 7.85.

In the case of `CNC(=O)c1nnc(NC(=O)C2CC2)cc1Nc1cccc(C(=O)Nc2ccc(-n3ccnc3)cc2)c1OC`, the Tm in data set [1] is 52.2 °C; in data set [2], 54 °C.

Turning to `CNC(=O)c1nnc(NC(=O)C2CC2)cc1Nc1cccc(C(=O)Nc2ccc(-c3cccnc3)cc2)c1OC`, the figures for the Tm in data set [1] and in data set [2] were 54.1 °C and 55.5 °C, respectively.
